US20140234350A1, “OVARIAN CANCER VACCINES AND VACCINATION METHODS” (Cedars-Sinai Medical Center, priority 2013, published 2014)

Test system: antigen-specific CTLs (CD8+ T cells) against T2 cells pulsed with CD133 HLA-A2 peptides
Assay: IFN-γ ELISPOT assay of antigen-specific T cell response
Assay type: cell-based, human
Settings: peptide-induced CTLs co-cultured with T2 cells pulsed with 10 μg/ml of peptides for 20 hours, compared with T2 control (no peptides); FIG. 3
Protocol: To test this hypothesis, effector CD8^+ T cells were isolated and co-cultured with HLA-A2+ DC pulsed with CD133 peptides to induce antigen-specific CTLs. Antigens-specific T cell responses were evaluated by an IFN-γ ELISPOT assay.
Human monocyte-derived DC was generated using previously described methods. Briefly, monocytes were isolated from PBMC by magnetic immunoselection using EasySep human monocyte enrichment kit (Stem Cell Technologies) in accordance with the manufacturer's instructions and then cultured at […] in 20 ml of GMP CellGenix DC serum-free medium (Cat#20801-0500, Cellgenix) supplemented with 1000 unit/ml of recombinant human GM-CSF (Cat#AF-300-03, Peprotech, Inc) and recombinant human IL-4(Cat# AF-200-04, Peprotech, Inc). Cells were harvested after 3 or 6 days of culture. The DCs were washed and plated in 6-well plates at a concentration of 5×10^6 cells/well IFN-γ (1000 unit/ml) and monophosphoryl lipid A (MPLA, 20-50 μg/ml) was added into the wells to mature the DC for 24 hr or 48 hrs. Prior to some assays, DC was frozen and stored into liquid nitrogen.
In order to evaluate antigen-specific immune responses, CD8^+ T cells were isolated from fresh or frozen apheresis by positive selection using Dynabeads® CD8 Positive Isolation Kit (Life Technologies, Grand Island, N.Y.) and co-cultured with autologous mDC for four weeks. DCs were added weekly. Briefly, mDC was pulsed with synthetic peptides ([…]) for 6-8 hours at 37° C., and then treated with 20 μg/ml Mitomycin C (Sigma-Aldrich, St. Louis, Mo.) for 25 min at 37° C. and 5% CO2. […]
Antigen-specific immune responses were evaluated by the IFN-γ Elispot kit (BD Biosciences) following previously described methods. […] The colored spots, representing cytokine-producing cells, were counted under a dissecting microscope. The results were evaluated by an automated ELISPOT reader system using KS ELISPOT 4.3 software.

Sequence	antigen-specific T cell response (IFN-γ ELISPOT)
YLQWIEFSI (listed as Homo sapiens) [CD133p753, CD133 HLA-A2 peptide]	can efficiently recognize T2 pulsed with these antigens and boost the T cell immune response
FLLPALIFAV (listed as Homo sapiens) [CD133p804, CD133 HLA-A2 peptide, position 804-813]	can efficiently recognize T2 pulsed with these antigens and boost the T cell immune response
ILSAFSVYV (listed as Homo sapiens) [CD133p405, CD133 HLA-A2 peptide, position 405-413]	can efficiently recognize T2 pulsed with these antigens and boost the T cell immune response
